Data reported in patent US11572590B2, “Methods for evaluating tumor cell spheroids using 3D microfluidic cell culture device” (Dana-Farber Cancer Institute, Inc., priority 2017, dated 2023).
Where two headings read alike, the source gives them in different places.

What was measured:
Test in all cases: SelectScreen Kinase Profiling, single point inhibition and IC50 for off-target kinases
Format in all cases: biochemical
[1] = target: off-target kinases (Homo sapiens, UniProt P10721, D816V); conditions: KIT D816V, LanthaScreen Binding
[2] = target: off-target kinases (Homo sapiens, UniProt P51812); conditions: RPS6KA3 (RSK2), ZLYTE, ATP Km app
Chain of off-target kinases (Homo sapiens, UniProt P51812) (P51812 whole entry): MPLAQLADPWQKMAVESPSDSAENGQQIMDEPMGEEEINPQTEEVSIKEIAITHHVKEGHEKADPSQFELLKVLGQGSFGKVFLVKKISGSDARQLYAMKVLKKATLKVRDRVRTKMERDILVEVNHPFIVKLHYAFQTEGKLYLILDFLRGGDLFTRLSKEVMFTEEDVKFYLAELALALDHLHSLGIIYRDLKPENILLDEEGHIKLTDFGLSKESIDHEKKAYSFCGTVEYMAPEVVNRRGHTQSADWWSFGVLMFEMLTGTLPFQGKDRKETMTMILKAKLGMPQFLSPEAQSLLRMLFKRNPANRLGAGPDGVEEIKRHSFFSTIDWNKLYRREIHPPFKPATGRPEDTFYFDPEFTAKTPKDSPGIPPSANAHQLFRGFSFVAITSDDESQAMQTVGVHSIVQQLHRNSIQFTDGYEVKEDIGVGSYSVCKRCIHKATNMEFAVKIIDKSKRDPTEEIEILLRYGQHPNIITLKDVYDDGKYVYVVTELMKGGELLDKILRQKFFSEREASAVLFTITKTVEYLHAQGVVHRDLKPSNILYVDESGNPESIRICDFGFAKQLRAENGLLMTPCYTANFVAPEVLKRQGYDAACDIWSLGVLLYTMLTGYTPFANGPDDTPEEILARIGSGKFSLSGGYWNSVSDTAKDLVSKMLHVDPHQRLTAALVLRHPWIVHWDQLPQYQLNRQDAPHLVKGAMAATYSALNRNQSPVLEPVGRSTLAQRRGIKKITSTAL

[3] = target: T1, off-target kinases (Homo sapiens, UniProt Q13976); conditions: PRKG1, ZLYTE, ATP Km app
T1 sequence (Q13976 1-671): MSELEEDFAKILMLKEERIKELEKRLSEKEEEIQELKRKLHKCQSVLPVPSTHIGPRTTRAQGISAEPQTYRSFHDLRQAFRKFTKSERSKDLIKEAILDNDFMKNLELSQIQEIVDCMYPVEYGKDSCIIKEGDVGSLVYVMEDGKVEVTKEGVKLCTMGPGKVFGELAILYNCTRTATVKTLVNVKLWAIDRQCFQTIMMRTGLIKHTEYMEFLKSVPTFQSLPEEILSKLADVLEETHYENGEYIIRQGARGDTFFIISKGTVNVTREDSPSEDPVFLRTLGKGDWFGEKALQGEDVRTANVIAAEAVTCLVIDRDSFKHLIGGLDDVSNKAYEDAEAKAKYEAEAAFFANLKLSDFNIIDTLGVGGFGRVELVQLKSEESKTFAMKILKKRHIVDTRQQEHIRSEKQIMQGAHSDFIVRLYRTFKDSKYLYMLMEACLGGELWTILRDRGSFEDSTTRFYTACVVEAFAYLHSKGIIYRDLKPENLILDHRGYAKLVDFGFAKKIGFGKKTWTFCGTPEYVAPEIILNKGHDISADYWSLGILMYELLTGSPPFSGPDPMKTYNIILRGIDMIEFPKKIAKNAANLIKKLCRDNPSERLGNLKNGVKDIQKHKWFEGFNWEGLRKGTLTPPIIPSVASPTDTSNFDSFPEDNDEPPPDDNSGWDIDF

[4] = target: off-target kinases (Homo sapiens, UniProt Q15303); conditions: ERBB4 (HER4), ZLYTE, ATP Km app
Chain of off-target kinases (Homo sapiens, UniProt Q15303) (Q15303 26-1308): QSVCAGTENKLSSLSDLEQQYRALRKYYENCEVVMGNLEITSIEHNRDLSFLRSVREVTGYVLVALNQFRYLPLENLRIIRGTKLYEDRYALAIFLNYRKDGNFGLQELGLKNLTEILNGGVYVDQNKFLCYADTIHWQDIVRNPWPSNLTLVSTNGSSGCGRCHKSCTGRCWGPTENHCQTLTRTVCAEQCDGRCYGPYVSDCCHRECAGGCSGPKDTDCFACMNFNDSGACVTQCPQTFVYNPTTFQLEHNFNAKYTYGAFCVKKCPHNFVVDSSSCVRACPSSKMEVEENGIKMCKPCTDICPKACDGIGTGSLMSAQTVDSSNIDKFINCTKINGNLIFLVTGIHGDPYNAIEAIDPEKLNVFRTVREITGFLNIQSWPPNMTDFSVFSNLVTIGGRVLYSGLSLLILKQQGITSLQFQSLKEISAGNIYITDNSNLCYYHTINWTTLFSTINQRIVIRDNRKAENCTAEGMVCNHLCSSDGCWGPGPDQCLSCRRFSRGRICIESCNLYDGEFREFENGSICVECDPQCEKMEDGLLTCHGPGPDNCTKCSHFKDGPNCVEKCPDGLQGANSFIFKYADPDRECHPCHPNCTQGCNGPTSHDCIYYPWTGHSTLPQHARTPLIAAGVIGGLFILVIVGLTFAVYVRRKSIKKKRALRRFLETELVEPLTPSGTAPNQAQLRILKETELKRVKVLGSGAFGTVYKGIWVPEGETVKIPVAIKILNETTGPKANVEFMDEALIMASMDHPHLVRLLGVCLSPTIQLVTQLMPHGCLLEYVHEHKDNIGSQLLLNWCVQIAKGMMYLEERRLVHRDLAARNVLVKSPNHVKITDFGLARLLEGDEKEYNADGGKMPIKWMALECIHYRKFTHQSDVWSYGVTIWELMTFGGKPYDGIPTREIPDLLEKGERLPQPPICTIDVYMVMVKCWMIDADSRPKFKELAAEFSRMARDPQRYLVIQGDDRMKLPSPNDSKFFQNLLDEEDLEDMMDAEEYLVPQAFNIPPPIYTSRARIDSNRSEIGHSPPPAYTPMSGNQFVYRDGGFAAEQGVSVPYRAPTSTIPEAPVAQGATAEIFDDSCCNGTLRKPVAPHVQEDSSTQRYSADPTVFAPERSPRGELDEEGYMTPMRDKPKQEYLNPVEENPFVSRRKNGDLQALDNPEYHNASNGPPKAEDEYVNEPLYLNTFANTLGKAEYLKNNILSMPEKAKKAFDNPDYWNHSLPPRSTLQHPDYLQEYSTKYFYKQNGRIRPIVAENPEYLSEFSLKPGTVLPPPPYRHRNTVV

[5] = target: off-target kinases (Homo sapiens, UniProt Q16512); conditions: PKN1 (PRK1); Cmpd1 1000 μM; ATP Km app; ZLYTE
Chain of off-target kinases (Homo sapiens, UniProt Q16512) (Q16512 whole entry): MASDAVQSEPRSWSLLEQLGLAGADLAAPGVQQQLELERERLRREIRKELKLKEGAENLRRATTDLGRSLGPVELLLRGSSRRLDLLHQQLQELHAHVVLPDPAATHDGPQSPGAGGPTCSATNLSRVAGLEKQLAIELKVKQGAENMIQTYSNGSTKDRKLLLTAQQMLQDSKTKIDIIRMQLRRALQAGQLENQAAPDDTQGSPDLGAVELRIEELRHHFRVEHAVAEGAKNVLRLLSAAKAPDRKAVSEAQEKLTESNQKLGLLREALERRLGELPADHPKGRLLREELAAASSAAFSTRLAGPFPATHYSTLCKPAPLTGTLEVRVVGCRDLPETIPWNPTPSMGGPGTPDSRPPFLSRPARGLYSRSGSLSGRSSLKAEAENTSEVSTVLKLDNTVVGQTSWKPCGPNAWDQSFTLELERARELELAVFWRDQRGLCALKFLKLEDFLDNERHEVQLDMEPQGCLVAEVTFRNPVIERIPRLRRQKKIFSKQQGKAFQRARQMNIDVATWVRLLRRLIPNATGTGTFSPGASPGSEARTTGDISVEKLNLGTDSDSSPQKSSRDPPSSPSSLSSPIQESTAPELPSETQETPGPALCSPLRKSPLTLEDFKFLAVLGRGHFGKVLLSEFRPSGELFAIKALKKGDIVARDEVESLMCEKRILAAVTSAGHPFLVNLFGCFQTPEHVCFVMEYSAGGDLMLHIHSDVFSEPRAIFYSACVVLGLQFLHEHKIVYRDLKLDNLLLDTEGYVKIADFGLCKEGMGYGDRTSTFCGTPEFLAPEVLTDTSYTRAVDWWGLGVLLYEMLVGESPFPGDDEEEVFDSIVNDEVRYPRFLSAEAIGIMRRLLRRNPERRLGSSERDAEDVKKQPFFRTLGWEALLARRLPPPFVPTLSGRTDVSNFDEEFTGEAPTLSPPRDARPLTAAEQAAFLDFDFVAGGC

[6] = target: off-target kinases (Homo sapiens, UniProt Q7KZI7); conditions: MARK2, ATP Km app, ZLYTE
Chain of off-target kinases (Homo sapiens, UniProt Q7KZI7) (Q7KZI7 whole entry): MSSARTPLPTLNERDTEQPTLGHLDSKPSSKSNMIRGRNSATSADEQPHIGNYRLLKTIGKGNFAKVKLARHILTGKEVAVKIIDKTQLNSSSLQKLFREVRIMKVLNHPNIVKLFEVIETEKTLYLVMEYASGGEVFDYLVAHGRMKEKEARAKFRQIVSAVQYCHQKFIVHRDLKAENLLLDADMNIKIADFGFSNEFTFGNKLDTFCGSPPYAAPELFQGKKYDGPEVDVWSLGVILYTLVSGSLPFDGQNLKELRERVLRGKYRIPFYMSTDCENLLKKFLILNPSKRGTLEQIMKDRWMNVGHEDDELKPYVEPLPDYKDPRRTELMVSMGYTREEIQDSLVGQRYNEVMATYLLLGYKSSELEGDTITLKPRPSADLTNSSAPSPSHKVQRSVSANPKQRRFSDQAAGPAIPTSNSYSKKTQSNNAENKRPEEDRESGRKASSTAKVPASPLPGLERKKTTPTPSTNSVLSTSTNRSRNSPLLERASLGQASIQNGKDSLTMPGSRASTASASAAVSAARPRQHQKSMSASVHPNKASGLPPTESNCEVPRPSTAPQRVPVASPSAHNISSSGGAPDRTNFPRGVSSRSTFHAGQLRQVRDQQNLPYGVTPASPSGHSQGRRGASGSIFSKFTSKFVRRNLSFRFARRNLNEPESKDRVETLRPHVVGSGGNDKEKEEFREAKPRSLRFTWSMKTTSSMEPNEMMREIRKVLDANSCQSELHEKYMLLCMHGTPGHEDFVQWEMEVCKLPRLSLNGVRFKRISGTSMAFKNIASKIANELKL

[7] = target: off-target kinases (Homo sapiens, UniProt Q9HBH9); conditions: MKNK2 (MNK2), LanthaScreen Binding
Chain of off-target kinases (Homo sapiens, UniProt Q9HBH9) (Q9HBH9 whole entry): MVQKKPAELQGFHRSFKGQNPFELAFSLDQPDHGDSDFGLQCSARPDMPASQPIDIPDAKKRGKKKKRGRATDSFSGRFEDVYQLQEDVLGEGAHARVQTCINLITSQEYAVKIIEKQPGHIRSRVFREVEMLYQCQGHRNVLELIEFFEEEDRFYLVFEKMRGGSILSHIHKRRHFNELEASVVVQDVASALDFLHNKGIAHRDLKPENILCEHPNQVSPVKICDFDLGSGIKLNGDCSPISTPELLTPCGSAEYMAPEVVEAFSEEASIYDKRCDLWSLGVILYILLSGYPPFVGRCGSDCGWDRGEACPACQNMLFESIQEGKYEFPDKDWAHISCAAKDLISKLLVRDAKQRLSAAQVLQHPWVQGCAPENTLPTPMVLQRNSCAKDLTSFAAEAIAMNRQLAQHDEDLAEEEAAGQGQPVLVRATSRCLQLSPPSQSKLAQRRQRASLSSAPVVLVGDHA

## N#Cc1cc(-c2ncnc(Nc3ccc(N4CCN(C5COC5)CC4)cc3)n2)ccc1OC1CCOCC1 [Compound 1, 5-(4-((4-(4-(oxetan-3-yl)piperazin-1-yl)phenyl)amino)-1,3,5-triazin-2-yl)-2-((tetrahydro-2H-pyran-4-yl)oxy)benzonitrile]
[1]; read-out: % Inhibition 1
  inhibition: 83%
[1]; read-out: % Inhibition 2
  inhibition: 83%
[1]; read-out: % Inhibition Avg
  inhibition: 83%
[2]; read-out: % Inhibition 1
  inhibition: 17%
[2]; read-out: % Inhibition 2
  inhibition: 10%
[2]; read-out: % Inhibition Avg
  inhibition: 14%
[3]; read-out: % Inhibition 1
  inhibition: 2%
[3]; read-out: % Inhibition 2
  inhibition: 5%
[3]; read-out: % Inhibition Avg
  inhibition: 3%
[4]; read-out: % Inhibition 1
  inhibition: 8%
[4]; read-out: % Inhibition 2
  inhibition: 5%
[4]; read-out: % Inhibition Avg
  inhibition: 6%
[5]
  % Inhibition 1: −6%
  % Inhibition 2: −4%
  % Inhibition Avg: −5%
[6]; read-out: % Inhibition 1
  inhibition: 86%
[6]; read-out: % Inhibition 2
  inhibition: 82%
[6]; read-out: % Inhibition Avg
  inhibition: 84%
[7]; read-out: % Inhibition 1
  inhibition: 86%
[7]; read-out: % Inhibition 2
  inhibition: 88%
[7]; read-out: % Inhibition Avg
  inhibition: 87%
